Test results: ChEMBL document CHEMBL1201862, “PubChem BioAssay data set” (2004)
Activity calls are given as the source filed them.

Tests used:
Caspase-3 = biological target: T1, Caspase-3 (Homo sapiens, UniProt P42574); format: functional;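 also: Dose-response selectivity test against caspase-3 for candidate inhibitors of sentrin-specific proteases (SENPs)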
T1 sequence (P42574 whole entry): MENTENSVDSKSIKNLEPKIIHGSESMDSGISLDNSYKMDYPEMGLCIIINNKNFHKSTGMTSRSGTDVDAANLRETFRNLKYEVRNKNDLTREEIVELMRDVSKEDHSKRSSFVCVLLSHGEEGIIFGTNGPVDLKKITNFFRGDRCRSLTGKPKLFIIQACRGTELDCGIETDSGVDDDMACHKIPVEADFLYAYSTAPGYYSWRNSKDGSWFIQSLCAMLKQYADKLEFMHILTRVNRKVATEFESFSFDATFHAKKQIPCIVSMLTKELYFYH

[1] = biological target: T2, Sentrin-specific protease 7 (Homo sapiens, UniProt Q9BQF6); format: functional;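 also: Luminescence-based dose-response confirmation of ultra-high-throughput screening hits, measuring inhibition of SENP7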
T2 sequence (Q9BQF6 whole entry): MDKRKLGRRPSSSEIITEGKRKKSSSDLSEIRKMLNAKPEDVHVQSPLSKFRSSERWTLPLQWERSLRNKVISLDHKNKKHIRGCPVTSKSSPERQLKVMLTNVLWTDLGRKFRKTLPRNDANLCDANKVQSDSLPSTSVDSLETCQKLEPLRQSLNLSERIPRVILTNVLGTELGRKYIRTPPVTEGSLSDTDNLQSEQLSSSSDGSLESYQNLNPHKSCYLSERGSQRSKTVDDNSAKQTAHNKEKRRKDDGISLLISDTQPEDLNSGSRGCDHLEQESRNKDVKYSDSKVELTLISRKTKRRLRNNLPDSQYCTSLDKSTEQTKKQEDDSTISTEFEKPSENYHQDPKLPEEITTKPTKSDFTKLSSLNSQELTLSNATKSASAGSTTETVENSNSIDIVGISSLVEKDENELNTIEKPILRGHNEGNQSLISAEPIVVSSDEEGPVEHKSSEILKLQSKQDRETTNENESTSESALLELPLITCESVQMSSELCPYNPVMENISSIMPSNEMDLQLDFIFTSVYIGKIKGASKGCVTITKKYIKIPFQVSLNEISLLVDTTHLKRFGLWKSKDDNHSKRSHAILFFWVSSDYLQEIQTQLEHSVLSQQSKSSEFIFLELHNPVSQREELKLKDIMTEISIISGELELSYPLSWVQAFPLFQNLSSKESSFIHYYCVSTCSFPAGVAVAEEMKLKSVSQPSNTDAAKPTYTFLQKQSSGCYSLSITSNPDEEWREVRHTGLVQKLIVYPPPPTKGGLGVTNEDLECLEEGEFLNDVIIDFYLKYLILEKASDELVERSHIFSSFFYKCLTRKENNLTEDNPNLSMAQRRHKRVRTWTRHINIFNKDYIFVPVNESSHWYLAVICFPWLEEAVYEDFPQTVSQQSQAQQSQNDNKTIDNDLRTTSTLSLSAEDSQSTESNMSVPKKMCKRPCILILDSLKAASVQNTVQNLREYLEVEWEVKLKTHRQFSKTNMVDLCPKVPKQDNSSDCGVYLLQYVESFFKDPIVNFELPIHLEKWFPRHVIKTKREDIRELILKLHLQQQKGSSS

[2] = tested on: Streptococcus sp. 'group A'; test: growth inhibition of control SK(-) GAS strain, dose response, counter-screen for streptokinase expression inhibitor project, luminescence, kanamycin, BacTiterGlo, confirmation (AID 1900); format: functional, organism-based
[3] = biological target: T3, Tyrosine-protein kinase receptor TYRO3 (Homo sapiens, UniProt Q06418); format: functional;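 also: TYRO3 value obtained as one member of a kinome-wide profiling panel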
T3 sequence (Q06418 whole entry): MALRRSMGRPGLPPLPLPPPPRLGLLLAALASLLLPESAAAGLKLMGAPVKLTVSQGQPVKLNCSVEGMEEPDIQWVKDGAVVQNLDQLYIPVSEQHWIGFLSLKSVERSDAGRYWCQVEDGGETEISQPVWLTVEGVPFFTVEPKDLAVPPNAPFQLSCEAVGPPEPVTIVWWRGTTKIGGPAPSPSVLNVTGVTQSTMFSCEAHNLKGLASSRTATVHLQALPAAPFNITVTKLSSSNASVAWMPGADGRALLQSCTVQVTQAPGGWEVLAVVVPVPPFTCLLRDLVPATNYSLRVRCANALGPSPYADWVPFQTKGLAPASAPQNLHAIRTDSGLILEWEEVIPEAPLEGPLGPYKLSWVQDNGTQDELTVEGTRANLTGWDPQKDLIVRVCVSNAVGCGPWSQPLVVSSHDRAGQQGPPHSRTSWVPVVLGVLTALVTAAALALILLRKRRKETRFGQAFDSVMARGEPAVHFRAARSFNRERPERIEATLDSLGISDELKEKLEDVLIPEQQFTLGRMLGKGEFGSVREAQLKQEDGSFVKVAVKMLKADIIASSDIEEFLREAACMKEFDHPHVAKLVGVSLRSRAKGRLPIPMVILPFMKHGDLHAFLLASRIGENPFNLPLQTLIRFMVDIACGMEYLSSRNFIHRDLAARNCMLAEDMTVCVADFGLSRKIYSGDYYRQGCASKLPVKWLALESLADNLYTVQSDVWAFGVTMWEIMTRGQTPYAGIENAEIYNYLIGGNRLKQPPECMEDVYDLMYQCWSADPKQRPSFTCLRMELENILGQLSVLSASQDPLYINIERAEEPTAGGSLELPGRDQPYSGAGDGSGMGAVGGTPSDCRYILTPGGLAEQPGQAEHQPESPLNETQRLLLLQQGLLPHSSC

[4] = biological target: Mitogen-activated protein kinase kinase kinase kinase 4 (Homo sapiens, UniProt O95819); format: functional
[5] = biological target: Dual specificity tyrosine-phosphorylation-regulated kinase 1A (Homo sapiens, UniProt Q13627); format: functional;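 also: measured against DYRK1A as one member of a broad kinome profiling panel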

Sequence of Mitogen-activated protein kinase kinase kinase kinase 4 (O95819 whole entry): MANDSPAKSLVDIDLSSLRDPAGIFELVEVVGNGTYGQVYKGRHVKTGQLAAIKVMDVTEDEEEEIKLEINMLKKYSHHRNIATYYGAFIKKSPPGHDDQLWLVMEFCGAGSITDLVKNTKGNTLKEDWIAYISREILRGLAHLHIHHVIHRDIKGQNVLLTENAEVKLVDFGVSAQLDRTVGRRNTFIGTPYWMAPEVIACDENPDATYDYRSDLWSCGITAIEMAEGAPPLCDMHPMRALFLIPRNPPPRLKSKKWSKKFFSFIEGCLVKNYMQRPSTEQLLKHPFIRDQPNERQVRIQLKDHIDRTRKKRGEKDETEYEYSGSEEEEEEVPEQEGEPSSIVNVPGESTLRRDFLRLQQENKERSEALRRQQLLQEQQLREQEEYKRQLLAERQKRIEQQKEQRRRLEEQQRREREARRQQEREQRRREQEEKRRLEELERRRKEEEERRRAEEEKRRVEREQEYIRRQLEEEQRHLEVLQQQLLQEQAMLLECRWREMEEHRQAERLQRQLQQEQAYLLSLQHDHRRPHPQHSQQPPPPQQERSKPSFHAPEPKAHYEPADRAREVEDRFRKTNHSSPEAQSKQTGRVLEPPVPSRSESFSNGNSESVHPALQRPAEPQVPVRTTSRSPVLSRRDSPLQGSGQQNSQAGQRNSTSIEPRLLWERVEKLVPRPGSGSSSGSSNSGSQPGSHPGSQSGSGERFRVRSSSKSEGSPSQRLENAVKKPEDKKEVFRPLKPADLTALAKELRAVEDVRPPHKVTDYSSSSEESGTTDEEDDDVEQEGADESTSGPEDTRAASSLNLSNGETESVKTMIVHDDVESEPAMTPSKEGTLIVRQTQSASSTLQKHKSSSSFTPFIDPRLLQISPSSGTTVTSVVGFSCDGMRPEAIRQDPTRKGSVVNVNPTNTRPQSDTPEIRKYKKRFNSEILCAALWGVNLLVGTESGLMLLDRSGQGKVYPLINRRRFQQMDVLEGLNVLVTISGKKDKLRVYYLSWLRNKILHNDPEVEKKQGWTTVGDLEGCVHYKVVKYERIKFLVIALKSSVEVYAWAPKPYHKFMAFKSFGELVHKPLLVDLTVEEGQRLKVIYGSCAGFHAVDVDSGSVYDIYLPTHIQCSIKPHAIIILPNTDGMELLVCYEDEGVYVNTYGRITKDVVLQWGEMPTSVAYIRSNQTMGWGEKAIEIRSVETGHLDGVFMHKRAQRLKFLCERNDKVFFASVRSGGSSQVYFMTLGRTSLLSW

Row | Compound | IC50 (Caspase-3) | IC50 [1] | EC50 [2] | Ki [3] | Ki [4] | Ki [5]
1 | CCCNC(=O)c1c(N)n(CC2CCCO2)c2nc3ccccc3nc12 (centres undefined) | 15.2 µM (active) | 2.83 µM (active) |  |  |  | 
2 | O=C1/C(=C\c2cccc(O)c2O)SC(=S)N1Cc1ccccc1 |  |  | 2.77 µM (active) |  |  | 
3 | CC(C)(C)c1cc[n+](C2=C([N-]S(=O)(=O)c3cccs3)C(=O)c3ccccc3C2=O)cc1 | 23.8 µM (active) | 8.77 µM (active) | 2.73 µM (active) |  |  | 
4 | COc1c(-c2nc3ccccc3[nH]2)c(O)cc2oc(C)cc(=O)c12 |  |  |  | 0.316 µM (active) | 5.01 µM (active) | 0.2 µM (active)
5 | COC(=O)c1c(N)nc2ccccn12 |  |  |  | 25.1 µM (active) | 12.6 µM (active) | 39.8 µM (active)
6 | CCc1ccc(S(=O)(=O)/N=C2\C=C(Nc3ccc(O)cc3)C(=O)c3ccccc32)cc1 |  |  | 1.86 µM (active) |  |  | 
7 | Cc1cc([N+](=O)[O-])cc(/C=N\NC(=O)C2COc3ccccc3O2)c1O (centres undefined) | 17.6 µM (active) | 14.5 µM (active) | 2.74 µM (active) |  |  | 
8 | Cc1ccc(F)c(NC(=O)Nc2ccc(-c3cccc4[nH]nc(N)c34)cc2)c1 [LINIFANIB] |  |  |  | > 3.16 µM (inactive) | > 5.01 µM (inactive) | > 2 µM (inactive)
